US4407806A, “Fungicidal, herbicidal and plant growth regulating pyridyl-containing ethers” (Chevron Research Company, priority 1981, dated 1983)

Experiments:
Format in all cases: in vivo
[1] = tested on: grape downy mildew organism Plasmopara viticola; experiment: Grape Downy Mildew control (detached grape leaves); conditions: vs untreated check, read-out: Fungicidal Activity Control %, Grape D.M.
[2] = tested on: Tomato Late Blight organism Phytophthora infestans; experiment: whole plant or invertebrate; conditions: 168 h, read-out: Fungicidal Activity Control %, Tomato L.B.
[3] = tested on: celery late blight organism Septoria apii; experiment: whole plant or invertebrate; conditions: 336 h, read-out: Fungicidal Activity Control %, Celery L.B.
[4] = tested on: tomato Early Blight organism, Alternaria solani conidia; experiment: Tomato Early Blight control; conditions: 288 h, about 12 days in greenhouse, vs untreated check, read-out: Fungicidal Activity Control %, Tomato E.B.
Experimental: Compounds of the invention were tested for the control of the tomato Early Blight organism, Alternaria solani conidia. Tomato (variety Bonny Best) seedlings of 6 to 7 weeks old were used. The tomato plants were sprayed with a 250 ppm solution of the test compound in an acetone-and-water solution containing a small amount of a nonionic emulsifier. The sprayed plants were inoculated one day later with the organism, placed in the environmental chamber and incubated at […] and 100% relative humidity for 24 hours. Following the incubation, the plants were maintained in a greenhouse for about 12 days. Percent diseases control was based on the percent disease development on untreated check plants.

[5] = tested on: Bean Powdery Mildew organism Erisiphe polygoni; experiment: Bean Powdery Mildew control; conditions: 240 h, 10 days, vs untreated check, read-out: Fungicidal Activity Control %, Bean P.M.
Experimental: The compounds of the invention were tested for the control of the Bean Powdery Mildew organism […] polygoni. Seedling bean plants were sprayed with a 250 ppm solution of the test compound in acetone, water and a nonionic emulsifier. The sprayed plants were then inoculated 1 day later with organism. […] The percent disease control provided by a given test compound was based on the percent disease reduction relative to the untreated check plants.

[6] = tested on: Crabgrass (Digitaria sanguinalis); experiment: Pre-emergent herbicidal test; conditions: 504 h, pre-emergence, 33 micrograms/cm^2, 3 weeks, 0-to-100 scale, read-out: Herbicidal Activity Pre-Emergence % Control, Crab Grass
Experimental: (§1) An acetone solution of the test compound was prepared by mixing 750 mg of the compound, 220 mg of a nonionic surfactant and 25 ml of acetone. This solution was added to approximately 125 ml of water containing 156 mg of surfactant.
(§2) Seeds of the test vegetation were planted in a pot of […] and the test solution was sprayed uniformly onto the soil surface at a dose of 33 micrograms/cm^2. The pot was watered and placed in a greenhouse. […] At the end of this period, the herbicidal effectiveness of the compound was rated based on the physiological observations. A 0-to-100 scale was used, 0 representing no phytotoxicity, 100 representing complete kill.

[7] = tested on: Lambsquarter (Chenopodium album); experiment: Pre-emergent herbicidal test; conditions: 504 h, pre-emergence, 33 micrograms/cm^2, 3 weeks, 0-to-100 scale, read-out: Herbicidal Activity Pre-Emergence % Control, L'Qtr.
Experimental: as §1, §2

[8] = tested on: Mustard (Brassica arvensis); experiment: Pre-emergent herbicidal test; conditions: 504 h, pre-emergence, 33 micrograms/cm^2, 3 weeks, 0-to-100 scale
Experimental: as §1, §2

[9] = tested on: Pigweed (Amaranthus retraflexus); experiment: Pre-emergent herbicidal test; conditions: 504 h, pre-emergence, 33 micrograms/cm^2, 3 weeks, 0-to-100 scale
Experimental: as §1, §2

[10] = tested on: Soybean; experiment: Pre-emergent herbicidal test; conditions: Glycine max, 504 h; pre-emergence; 33 micrograms/cm^2; 3 weeks; 0-to-100 scale; read-out: Herbicidal Activity Pre-Emergence % Control, Soybean
Experimental: as §1, §2

[11] = tested on: Watergrass (Echinochloa crusgalli); experiment: Pre-emergent herbicidal test; conditions: Echinochloa crus-galli, 504 h; pre-emergence; 33 micrograms/cm^2; 3 weeks; 0-to-100 scale; read-out: Herbicidal Activity Pre-Emergence % Control, Water Grass
Experimental: as §1, §2

[12] = tested on: Wild Oats (Avena fatura); experiment: Pre-emergent herbicidal test; conditions: 504 h, pre-emergence, 33 micrograms/cm^2, 3 weeks, 0-to-100 scale
Experimental: as §1, §2

[13] = tested on: Crabgrass (Digitaria sanguinalis); experiment: Post-emergent herbicidal test; conditions: 504 h, post-emergence, 33 micrograms/cm^2, 3 weeks, 0-to-100 scale, read-out: Herbicidal Activity Post-Emergence % Control, Crab Grass
[14] = tested on: Lambsquarter (Chenopodium album); experiment: Post-emergent herbicidal test; conditions: 504 h, post-emergence, 33 micrograms/cm^2, 3 weeks, 0-to-100 scale, read-out: Herbicidal Activity Post-Emergence % Control, L'Qtr.
[15] = tested on: Mustard (Brassica arvensis); experiment: Post-emergent herbicidal test; conditions: 504 h, post-emergence, 33 micrograms/cm^2, 3 weeks, 0-to-100 scale
[16] = tested on: Pigweed (Amaranthus retraflexus); experiment: Post-emergent herbicidal test; conditions: 504 h, post-emergence, 33 micrograms/cm^2, 3 weeks, 0-to-100 scale
[17] = tested on: Soybean; experiment: Post-emergent herbicidal test; conditions: Glycine max, 504 h, post-emergence, 33 micrograms/cm^2, 3 weeks, 0-to-100 scale, read-out: Herbicidal Activity Post-Emergence % Control, Soybean
[18] = tested on: Watergrass (Echinochloa crusgalli); experiment: Post-emergent herbicidal test; conditions: Echinochloa crus-galli, 504 h, post-emergence, 33 micrograms/cm^2, 3 weeks, 0-to-100 scale, read-out: Herbicidal Activity Post-Emergence % Control, Water Grass
[19] = tested on: Wild Oats (Avena fatura); experiment: Post-emergent herbicidal test; conditions: 504 h, post-emergence, 33 micrograms/cm^2, 3 weeks, 0-to-100 scale
[20] = tested on: Idaho pinto bean plants; experiment: Axillary Bud Growth Inhibition Of Pinto Bean Plants; conditions: 288 h; 625-ppm; twelve days after treatment; vs untreated check; read-out: Bud Inhib (percent inhibition of axillary bud growth)
Experimental: Compounds of this invention were tested to determine their plant-growth-retarding effects on axillary bud growth of pinto beans.
Idaho pinto bean plants (13-16 days old) having monofoliate leaves fully developed and first trifoliates beginning to unfold were used. All growth 5 mm above the monofoliate leaf node was removed with forceps 1 to 4 hours prior to treatment with the test compounds. Four plants were used for each test compound.
A 625-ppm solution of the test compound in a 2% aqueous acetone solution containing a small amount of a nonionic surfactant was sprayed onto the pinto bean plants until runoff. After drying, the treated plants were transferred to a greenhouse maintained at 20°-23° C. and watered at regular intervals. Twelve days after treatment, the bud growth at the axil of the monofoliate leaf was determined and expressed as percent inhibition of axillary bud growth as compared to untreated check plants.

[21] = tested on: Cotton plants; experiment: Cotton Regrowth; conditions: Gossypium hirsutum, 13 to 18 days, 100% is total inhibition, read-out: Regrowth (percent inhibition of cotton regrowth)
Experimental: Compounds of this invention were tested to determine their plant-growth regulating effects on cotton leaf regrowth.
Cotton plants, 4 to 5 weeks old, containing 4 true leaves above the cotyledonary leaves are employed. Growth beyond the second true leaf was removed. Within 24 hours the plants are sprayed with a 2000 ppm solution of the test compound. After spraying, the plants are transferred to a greenhouse maintained at 85° F. (±5° F.) and incubated there for from 13 to 18 days. The plants during this period are sub-irrigated in 1/4" of water.
After this period, regrowth is determined as a percent inhibition of auxiliary bud regrowth--100% is total inhibition while 0% is no inhibition.

| Structure (SMILES) | pest or weed control at 250 ppm [1] [%] | pest or weed control at 250 ppm [2] [%] | pest or weed control at 250 ppm [3] [%] | pest or weed control at 250 ppm [4] [%] | pest or weed control at 250 ppm [5] [%] | pest or weed control at 33 µg/cm2 [6] [%] | pest or weed control at 33 µg/cm2 [7] [%] | pest or weed control at 33 µg/cm2 [8] [%] | pest or weed control at 33 µg/cm2 [9] [%] | plant injury at 33 µg/cm2 [10] [%] | pest or weed control at 33 µg/cm2 [11] [%] | pest or weed control at 33 µg/cm2 [12] [%] | pest or weed control at 5000 ppm, 33 µg/cm2 [13] [%] | pest or weed control at 5000 ppm, 33 µg/cm2 [14] [%] | pest or weed control at 5000 ppm, 33 µg/cm2 [15] [%] | pest or weed control at 5000 ppm, 33 µg/cm2 [16] [%] | plant injury at 5000 ppm, 33 µg/cm2 [17] [%] | pest or weed control at 5000 ppm, 33 µg/cm2 [18] [%] | pest or weed control at 5000 ppm, 33 µg/cm2 [19] [%] | pest or weed control at 625 µg/mL [20] [%] | further results |
| --- | --- | --- | --- | --- | --- | --- | --- | --- | --- | --- | --- | --- | --- | --- | --- | --- | --- | --- | --- | --- | --- |
| FC(F)(F)c1cccc(COC(c2ccccc2)c2cccnc2)c1 (stereo not drawn) [Compound 8] | 0 | 0 | 38 | 25 | 100 | 0 | 0 | 0 | 0 | 0 | 0 | 0 | 0 | 40 | 50 | 50 | 25 | 0 | 0 | 60 | inhibition at 2000 ppm [21]: 65% |
| c1ccc(COC(c2ccccc2)c2cccnc2)cc1 (stereo not drawn) [Compound 7] | 0 | 0 | 43 | 0 | 100 | 99 | 28 | 0 | 32 | 0 | 80 | 0 | 0 | 65 | 60 | 45 | 35 | 0 | 0 | 20 | inhibition at 2000 ppm [21]: 90% |
| C=CCOC(c1cccnc1)c1ccc(Cl)cc1Cl (stereo not drawn) [Compound 3, 3-pyridyl-2,4-dichlorophenylcarbinol allylether] | 15 | 0 | 48 | 4 | 100 | 90 | 98 | 45 | 85 | 0 | 73 | 0 | 0 | 60 | 25 | 50 | 33 | 0 | 0 | 25 | inhibition at 2000 ppm [21]: 0% |
